# Like-named read-outs stand apart in the source and are kept apart here.
# Experiments:
# [1] = Single dose PK in patients with narcolepsy (Cohorts 5, 6 and 7), plasma; type: in vivo, human; settings: for Cmax / Tmax / AUC / clearance / concentration at 9 h / AUC(0-inf) / AUC(0-t) / Vd / concentration at 1 h / concentration at 2 h / concentration at 4 h / concentration at 6 h: human, plasma; for AUC: read-out: AUC24
# Experimental: (§1) This study investigates (i) the safety and tolerability of Compound A (methyl (2R,3S)-3-((methylsulfonyl)amino)-2-(((cis-4-phenylcyclohexyl)oxy)methyl)piperidine-1-carboxylate) when a single dose given as a 9 hour continuous IV infusion is administered to healthy adults, healthy elderly subjects and patients with narcolepsy type 1 (NT1); (ii) the pharmacokinetics of Compound A when a single dose given as a 9 hour continuous IV infusion is administered to healthy adults, healthy elderly subjects and patients with narcolepsy type 1; and (iii) the pharmacodynamics (PD) effects of Compound A, primarily by evaluation of the sleep latency on MWT when a single dose given as a 9 hour continuous IV infusion is administered to patients with narcolepsy type 1.
# In Part 2, NT1 patients received a single dose of Compound A or placebo administered as a continuous IV infusion over a 9-hour period during the day. A 40-minute Maintenance of Wakefulness Test (MWT) was conducted 4 times during the continuous IV infusion to assess effects on wakefulness in soporific conditions at 2, 4, 6 and 8 hours from start of infusion. Three cohorts of patients were enrolled (n=14 total).
# (§2) Pharmacokinetics: Concentrations of Compound A in plasma, and CSF, and pharmacokinetics parameters.
# On average, the time to reach the plateau appeared to be approximately 4 hours after the start of infusion. […] After switching off the IV infusion, Compound A plasma concentrations declined rapidly and in a biphasic manner with a mean terminal disposition phase t1/2z ranging approximately from 3.5 to 4.1 hours across the doses.
# [2] = Single dose PK in healthy elderly subjects (Cohort 3), plasma; type: in vivo, human
# Experimental: as §1, §2
# [3] = intravenous, 11.2 mg, Cmpd A 11.2 mg, Median, Cohort 5, 6, 7
# [4] = intravenous, 44.8 mg, Cmpd A 44.8 mg, Geo Mean, Cohort 5, 6, 7
# [5] = intravenous, 44.8 mg, Cmpd A 44.8 mg, Mean, Cohort 5, 6, 7
# [6] = intravenous, 44.8 mg, Cmpd A 44.8 mg, Median, Cohort 5, 6, 7
# [7] = iv, 5 mg, NT1, single 9 h IV infusion, read-out: Plasma concentration, Mean
# [8] = iv, 5 mg, NT1, single 9 h IV infusion, read-out: Plasma concentration, Median
# [9] = iv, 11.2 mg, NT1, single 9 h IV infusion, read-out: Plasma concentration, Mean
# [10] = iv, 11.2 mg, NT1, single 9 h IV infusion, read-out: Plasma concentration, Median
# [11] = iv, 44.8 mg, NT1, single 9 h IV infusion, read-out: Plasma concentration, Mean
# [12] = iv, 44.8 mg, NT1, single 9 h IV infusion, read-out: Plasma concentration, Median
smiles,measurement,setting,value
"COC(=O)N1CCC[C@H](NS(C)(=O)=O)[C@@H]1CO[C@H]1CC[C@@H](c2ccccc2)CC1 [Compound A, methyl (2R,3S)-3-((methylsulfonyl)amino)-2-(((cis-4-phenylcyclohexyl)oxy)methyl)piperidine-1-carboxylate]",Cmax,[1]; [3],22.3 ng/mL
same,Tmax,[1]; [3],9 h
same,AUC,[1]; [3],200 ng·h/mL
same,clearance,"[1]; intravenous, 11.2 mg, Cmpd A 11.2 mg, Median, Cohort 5, 6, 7, read-out: CL (converted)",924 mL/min
same,concentration at 9 h,"[1]; intravenous, 11.2 mg, Cmpd A 11.2 mg, Median, Cohort 5, 6, 7, read-out: Ceoi",21.9 ng/mL
same,AUC(0-inf),[1]; [4],925 ng·h/mL
same,AUC(0-t),[1]; [4],911 ng·h/mL
same,Cmax,[1]; [4],96.5 ng/mL
same,AUC,[1]; [4],911 ng·h/mL
same,concentration at 9 h,"[1]; intravenous, 44.8 mg, Cmpd A 44.8 mg, Geo Mean, Cohort 5, 6, 7, read-out: Ceoi",94 ng/mL
same,AUC(0-inf),[1]; [5],959 ng·h/mL
same,AUC(0-t),[1]; [5],941 ng·h/mL
same,Cmax,[1]; [5],98.3 ng/mL
same,Tmax,[1]; [5],6.5 h
same,AUC,[1]; [5],941 ng·h/mL
same,clearance,"[1]; intravenous, 44.8 mg, Cmpd A 44.8 mg, Mean, Cohort 5, 6, 7, read-out: CL (converted)",836 mL/min
same,concentration at 9 h,"[1]; intravenous, 44.8 mg, Cmpd A 44.8 mg, Mean, Cohort 5, 6, 7, read-out: Ceoi",96.2 ng/mL
same,Vd,"[1]; intravenous, 44.8 mg, Cmpd A 44.8 mg, Mean, Cohort 5, 6, 7, read-out: Vss",117 L
same,Vd,"[1]; intravenous, 44.8 mg, Cmpd A 44.8 mg, Mean, Cohort 5, 6, 7, read-out: Vz",281 L
same,AUC(0-inf),[1]; [6],930 ng·h/mL
same,AUC(0-t),[1]; [6],919 ng·h/mL
same,Cmax,[1]; [6],97 ng/mL
same,Tmax,[1]; [6],6.5 h
same,AUC,[1]; [6],919 ng·h/mL
same,clearance,"[1]; intravenous, 44.8 mg, Cmpd A 44.8 mg, Median, Cohort 5, 6, 7, read-out: CL (converted)",809 mL/min
same,concentration at 9 h,"[1]; intravenous, 44.8 mg, Cmpd A 44.8 mg, Median, Cohort 5, 6, 7, read-out: Ceoi",95.2 ng/mL
same,Vd,"[1]; intravenous, 44.8 mg, Cmpd A 44.8 mg, Median, Cohort 5, 6, 7, read-out: Vss",116 L
same,Vd,"[1]; intravenous, 44.8 mg, Cmpd A 44.8 mg, Median, Cohort 5, 6, 7, read-out: Vz",282 L
same,concentration at 1 h,[1]; [7],6.38 ng/mL
same,concentration at 1 h,[1]; [8],6.25 ng/mL
same,concentration at 2 h,[1]; [7],8.75 ng/mL
same,concentration at 2 h,[1]; [8],9.15 ng/mL
same,concentration at 4 h,[1]; [7],10.1 ng/mL
same,concentration at 4 h,[1]; [8],9.62 ng/mL
same,concentration at 6 h,[1]; [7],7.91 ng/mL
same,concentration at 6 h,[1]; [8],7.97 ng/mL
same,concentration at 9 h,"[1]; iv, 5 mg, 9 hr, NT1, single 9 h IV infusion, read-out: Plasma concentration, Mean",9.64 ng/mL
same,concentration at 9 h,"[1]; iv, 5 mg, 9 hr, NT1, single 9 h IV infusion, read-out: Plasma concentration, Median",9.96 ng/mL
same,concentration at 1 h,[1]; [9],14.4 ng/mL
same,concentration at 1 h,[1]; [10],14.3 ng/mL
same,concentration at 2 h,[1]; [9],17.3 ng/mL
same,concentration at 2 h,[1]; [10],17.1 ng/mL
same,concentration at 4 h,[1]; [9],21.5 ng/mL
same,concentration at 4 h,[1]; [10],21.5 ng/mL
same,concentration at 6 h,[1]; [9],19.5 ng/mL
same,concentration at 6 h,[1]; [10],19.8 ng/mL
same,concentration at 9 h,"[1]; iv, 11.2 mg, 9 hr, NT1, single 9 h IV infusion, read-out: Plasma concentration, Mean",21.2 ng/mL
same,concentration at 9 h,"[1]; iv, 11.2 mg, 9 hr, NT1, single 9 h IV infusion, read-out: Plasma concentration, Median",21.9 ng/mL
same,concentration at 1 h,[1]; [11],61.5 ng/mL
same,concentration at 1 h,[1]; [12],56.5 ng/mL
same,concentration at 2 h,[1]; [11],74.1 ng/mL
same,concentration at 2 h,[1]; [12],76.3 ng/mL
same,concentration at 4 h,[1]; [11],96 ng/mL
same,concentration at 4 h,[1]; [12],92.9 ng/mL
same,concentration at 6 h,[1]; [11],90 ng/mL
same,concentration at 6 h,[1]; [12],88.3 ng/mL
same,concentration at 9 h,"[1]; iv, 44.8 mg, 9 hr, NT1, single 9 h IV infusion, read-out: Plasma concentration, Mean",96.2 ng/mL
same,concentration at 9 h,"[1]; iv, 44.8 mg, 9 hr, NT1, single 9 h IV infusion, read-out: Plasma concentration, Median",95.2 ng/mL
same,clearance,"[1]; iv, IV administration, NT1 patients, read-out: mean estimates of plasma clearance",833 to 950 mL/min
same,time to reach the plateau of plasma concentration after the start of infusion,"[1]; single 9 h IV infusion, 5 to 44.8 mg, NT1 patients",approximately 4 hours
same,reduction in clearance compared to younger healthy subjects,[2],20%

# — patent publication US20220339143A1, “TAK-925 FOR USE IN TREATING NARCOLEPSY” (Takeda Pharmaceutical Company Limited, priority 2019, published 2022)
